Experimental findings from ChEMBL document CHEMBL3822437, “N,N-Bis(glycityl)amines as anti-cancer drugs” (Bioorg Med Chem, 2016) are described below.

The nature of assay [1]: Antiproliferative activity against human LN18 cells after 48 hrs by MTT assay. Format: functional, cell-based. The following applies: LN-18, 48 h.
Assay [2] is described as follows: Antiproliferative activity against human SVGp12 cells after 48 hrs by MTT assay. Format: cell-based. The following applies: SVGp12, 48 h.
The nature of assay [3]: Selectivity index, ratio of IC50 for human SVGp12 cells to IC50 for human LN18 cells. Format: functional.
Assay [4] is described as follows: cells. To be noted: Homo sapiens, HL-60, 48 h.
Description: Antiproliferative activity against human HL60 cells after 48 hrs by MTT assay
In assay [5] the test system is HEK293. Description: Antiproliferative activity against HEK293 cells after 48 hrs by MTT assay. Format: cell-based. To be noted: Homo sapiens, HEK293, 48 h. For orientation: Tetrazolium dyes change colour on reduction, which living cells bring about.
In assay [6] the test system is HEK293. The experiment in a line: Selectivity index, ratio of IC50 for HEK293 cells to IC50 for human HL60 cells. The format is functional.
Assay [7] in a line: Antiproliferative activity against human THP1 cells after 48 hrs by MTT assay. Format: functional, cell-based. To be noted: THP-1, 48 h.

Broadly, the IC50 is the concentration that inhibits the measured activity by half. A higher IC50 goes with weaker potency in that assay.

In the case of `OC[C@@H](O)[C@@H](O)[C@H](O)[C@@H](O)CN(CCc1ccccc1)C[C@H](O)[C@@H](O)[C@H](O)[C@H](O)CO`, the values for the concentration for half-maximal inhibition (IC50) in assay [1], in assay [2] and in assay [4] were 290 µM, 212 µM and 91.3 µM, respectively. The “Ratio IC50” value in assay [3] came to 0.731.

Regarding `OC[C@@H](O)[C@@H](O)[C@@H](O)CN(CCc1ccccc1)C[C@H](O)[C@H](O)[C@H](O)CO`, the IC50 in assay [1] is 205 µM; in assay [4] it was 89.4 µM.

With `OC[C@@H](O)[C@H](O)[C@@H](O)CN(CCc1ccccc1)C[C@H](O)[C@@H](O)[C@H](O)CO`, the IC50 came out at 255 µM in assay [1], 215 µM in assay [5] and 136 µM in assay [4]. For the same molecule, the “Ratio IC50” value in assay [6] was 1.58.

Regarding `CCCCCCCCCCCCCCCCN(CC[C@H](O)[C@H](O)CO)CC[C@H](O)[C@H](O)CO`, the IC50 in assay [1] worked out at 30.5 µM; in assay [5], 31.1 µM; in assay [2] it was 26.6 µM; in assay [4], 6.44 µM. Moreover, the results for the “Ratio IC50” value in assay [6] and in assay [3] were 4.83 and 0.872, respectively.

For the molecule `OC[C@@H](O)[C@@H](O)[C@H](O)CN(CCc1ccccc1)C[C@@H](O)[C@H](O)[C@H](O)CO`, the IC50 was found to be 257 µM in assay [1], 230 µM in assay [5], 222 µM in assay [2] and 121 µM in assay [4]. Moreover, the results for the “Ratio IC50” value in assay [6] and in assay [3] were 1.9 and 0.864, respectively.

On to `CCCCCCCCCCCCCCCCN(CC[C@@H](O)[C@H](O)[C@H](O)CO)CC[C@@H](O)[C@H](O)[C@H](O)CO`, for which the IC50 in assay [1] turned out to be 50.6 µM; in assay [4], 6.66 µM.

Take `C[S+](C)[O-]` [DIMETHYL SULFOXIDE]: the IC50 came to 223 µM in assay [1]; 119 µM in assay [7]; 232 µM in assay [5]; 229 µM in assay [2]; 108 µM in assay [4]. For the same molecule, the results for the “Ratio IC50” value in assay [6] and in assay [3] were 2.15 and 1.03, respectively.

For `COc1cccc2c1C(=O)c1c(O)c3c(c(O)c1C2=O)C[C@@](O)(C(=O)CO)C[C@@H]3O[C@H]1C[C@H](N)[C@H](O)[C@H](C)O1` [DOXORUBICIN], the IC50 in assay [1] was found to be 68.9 µM; in assay [7] it was 7.19 µM; in assay [5] it was 44.4 µM; in assay [2] it was 4.21 µM; in assay [4], 5.5 µM.
